The assay deals with Intercellular adhesion molecule (ICAM-1), Integrin alpha-L/beta-2 (Homo sapiens, UniProt P05107+P20701). Kind of assay: Inhibitory concentration against integrin LFA-1/ICAM-1 binding complex. It is filed as protein-complex assay.

“And” between values parts separate entries of the source, which are not always exact repeats. Equal entries are not always repeated.

By IC50 is commonly meant the point on the concentration scale where inhibition reaches its midpoint. A lower IC50 goes with inhibition by little substance.

Chain of Intercellular adhesion molecule (ICAM-1), Integrin alpha-L/beta-2 (P20701 whole entry): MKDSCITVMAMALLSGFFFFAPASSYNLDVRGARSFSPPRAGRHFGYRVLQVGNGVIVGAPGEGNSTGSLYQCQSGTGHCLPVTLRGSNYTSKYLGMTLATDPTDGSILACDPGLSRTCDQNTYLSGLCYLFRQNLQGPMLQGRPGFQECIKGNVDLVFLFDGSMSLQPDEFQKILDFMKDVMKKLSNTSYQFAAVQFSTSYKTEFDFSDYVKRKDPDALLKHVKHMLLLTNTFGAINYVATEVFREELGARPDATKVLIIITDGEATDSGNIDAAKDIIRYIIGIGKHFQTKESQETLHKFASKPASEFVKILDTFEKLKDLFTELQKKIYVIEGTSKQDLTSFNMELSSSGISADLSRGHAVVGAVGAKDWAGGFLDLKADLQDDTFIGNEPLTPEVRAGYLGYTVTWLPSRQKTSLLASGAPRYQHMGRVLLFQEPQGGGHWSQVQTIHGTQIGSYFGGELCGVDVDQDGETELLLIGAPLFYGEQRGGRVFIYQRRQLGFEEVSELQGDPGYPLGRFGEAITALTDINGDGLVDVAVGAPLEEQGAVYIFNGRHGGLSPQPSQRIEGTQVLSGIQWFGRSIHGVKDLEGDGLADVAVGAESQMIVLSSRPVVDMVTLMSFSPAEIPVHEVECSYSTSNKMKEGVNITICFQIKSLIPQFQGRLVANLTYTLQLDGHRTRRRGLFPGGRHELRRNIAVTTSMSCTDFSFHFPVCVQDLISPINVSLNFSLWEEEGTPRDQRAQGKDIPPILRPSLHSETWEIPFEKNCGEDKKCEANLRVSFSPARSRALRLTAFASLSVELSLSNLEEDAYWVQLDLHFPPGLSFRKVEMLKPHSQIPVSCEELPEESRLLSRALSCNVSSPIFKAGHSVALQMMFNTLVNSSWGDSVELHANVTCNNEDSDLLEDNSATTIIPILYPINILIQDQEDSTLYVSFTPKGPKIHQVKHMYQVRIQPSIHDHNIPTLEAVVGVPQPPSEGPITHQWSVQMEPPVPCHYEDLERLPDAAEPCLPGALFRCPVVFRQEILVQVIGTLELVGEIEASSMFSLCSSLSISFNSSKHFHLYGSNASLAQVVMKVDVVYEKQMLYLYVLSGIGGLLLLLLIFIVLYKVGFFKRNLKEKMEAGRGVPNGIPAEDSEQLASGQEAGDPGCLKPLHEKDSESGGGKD
Chain of Intercellular adhesion molecule (ICAM-1), Integrin alpha-L/beta-2 (P05362 whole entry, further chain): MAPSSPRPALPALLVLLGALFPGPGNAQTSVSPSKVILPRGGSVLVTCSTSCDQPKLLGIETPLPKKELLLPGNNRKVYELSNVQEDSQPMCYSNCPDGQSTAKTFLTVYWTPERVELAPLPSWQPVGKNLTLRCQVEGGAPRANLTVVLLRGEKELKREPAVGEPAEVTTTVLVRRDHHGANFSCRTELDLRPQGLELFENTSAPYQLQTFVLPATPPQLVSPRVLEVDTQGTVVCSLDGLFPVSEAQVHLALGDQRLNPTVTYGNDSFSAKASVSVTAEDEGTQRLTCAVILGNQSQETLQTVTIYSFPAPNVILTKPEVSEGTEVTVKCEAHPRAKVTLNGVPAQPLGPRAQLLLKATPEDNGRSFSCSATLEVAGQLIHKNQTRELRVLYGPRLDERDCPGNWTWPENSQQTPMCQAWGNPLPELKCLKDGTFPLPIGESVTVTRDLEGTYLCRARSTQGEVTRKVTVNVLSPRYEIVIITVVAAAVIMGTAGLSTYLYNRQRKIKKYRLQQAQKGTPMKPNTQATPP
Chain of Intercellular adhesion molecule (ICAM-1), Integrin alpha-L/beta-2 (P05107 whole entry): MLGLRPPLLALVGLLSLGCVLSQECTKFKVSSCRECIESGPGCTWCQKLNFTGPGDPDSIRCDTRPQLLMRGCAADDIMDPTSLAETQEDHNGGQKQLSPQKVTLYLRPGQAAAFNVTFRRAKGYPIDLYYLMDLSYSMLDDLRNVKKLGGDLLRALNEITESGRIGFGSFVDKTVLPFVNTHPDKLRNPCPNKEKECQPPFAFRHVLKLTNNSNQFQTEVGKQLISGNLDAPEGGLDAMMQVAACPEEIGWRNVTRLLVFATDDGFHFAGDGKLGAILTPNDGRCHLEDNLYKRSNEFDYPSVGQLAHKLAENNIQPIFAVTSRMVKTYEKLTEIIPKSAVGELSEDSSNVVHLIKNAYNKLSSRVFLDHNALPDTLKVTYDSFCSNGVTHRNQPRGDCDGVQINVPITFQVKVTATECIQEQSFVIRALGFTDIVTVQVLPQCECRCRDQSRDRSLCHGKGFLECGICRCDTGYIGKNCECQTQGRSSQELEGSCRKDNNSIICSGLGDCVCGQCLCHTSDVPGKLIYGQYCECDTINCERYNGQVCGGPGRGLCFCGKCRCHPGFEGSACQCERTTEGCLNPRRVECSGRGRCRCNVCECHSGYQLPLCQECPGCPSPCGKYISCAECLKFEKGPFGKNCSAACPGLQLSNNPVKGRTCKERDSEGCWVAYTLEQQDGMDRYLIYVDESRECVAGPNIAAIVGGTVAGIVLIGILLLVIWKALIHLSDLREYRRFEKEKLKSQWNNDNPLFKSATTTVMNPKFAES

`COc1ccccc1Sc1ccc(-c2ccnc(N3CC[C@@H](O)C3)c2)cc1C(F)(F)F` came in with an IC50 of 0.077 µM.

For `CC(C)c1ccccc1Sc1ccc(-c2cc(N3CCC(C(=O)O)CC3)ncn2)cc1C(F)(F)F`, the half-inhibitory concentration (IC50) was found to be 0.12 µM.

In turn, `COc1ccccc1Sc1ccc(-c2ccnc(N3CCC[C@@H]3CO)c2)cc1C(F)(F)F` yielded an IC50 of 0.331 µM.

Compound `CC(C)c1ccccc1Sc1ccc(-c2cc(N3CCC(c4nn[nH]n4)CC3)ncn2)cc1C(F)(F)F` registered a half-maximal inhibitory concentration (IC50) of 0.108 µM.

`COc1ccccc1Sc1ccc(-c2ccnc(N3CC[C@@H](NC(C)=O)C3)c2)cc1C(F)(F)F` gave an IC50 of 0.088 µM.

In the case of `COc1ccccc1Sc1ccc(-c2ccnc(N3CCC(CCO)CC3)c2)cc1C(F)(F)F`, the IC50 worked out at 0.111 µM.

`CC(C)c1ccccc1Sc1ccc(-c2ccnc(N3CCCC(C(=O)O)C3)c2)cc1C(F)(F)F` (stereo in doubt) returned an IC50 of 0.03 µM.

With `COc1ccccc1Sc1ccc(-c2ccnc(N3CC[C@@H](N(C)C(C)=O)C3)c2)cc1C(F)(F)F`, the IC50 came to 0.088 µM.

As for `COc1ccccc1Sc1ccc(-c2ccnc(N3CCCN(C(C)=O)CC3)c2)cc1C(F)(F)F`, the concentration for half-maximal inhibition (IC50) is 0.168 µM.

Turning to `CC(=O)N1CCN(c2cc(-c3ccc(Sc4ccccc4C(C)C)c(C(F)(F)F)c3)ccn2)CC1`, the IC50 is 0.093 µM and 0.06 µM.

`CC(C)c1ccccc1Sc1ccc(-c2cc(N3CCN(c4ccccn4)CC3)ncn2)cc1C(F)(F)F` came in with a half-maximal inhibitory concentration (IC50) of 1.27 µM.

`CC(=O)N1CCCN(c2cc(-c3ccc(Sc4ccc5c(c4)OCCO5)c(C(F)(F)F)c3)ccn2)CC1`: the half-inhibitory concentration (IC50) turned out to be 0.365 µM.

For `CCOC(=O)N1CCN(c2cc(-c3ccc(Sc4ccccc4C(C)C)c(C(F)(F)F)c3)ncn2)CC1`, the half-inhibitory concentration (IC50) was determined as 0.47 µM.

As for `CCCN1CCN(c2cc(-c3ccc(Sc4ccccc4OC)c(C(F)(F)F)c3)ccn2)CC1`, the IC50 stood at 0.9 µM.

Compound `COc1ccccc1Sc1ccc(-c2ccnc(N3CCC(CO)CC3)c2)cc1C(F)(F)F` came in with a half-maximal inhibitory concentration (IC50) of 0.08 µM.

Take `CC(C)c1ccccc1Sc1ccc(-c2cc(N3CCCC3CO)ncn2)cc1C(F)(F)F` (stereo in doubt; 10w): the 50% inhibitory concentration (IC50) was 0.68 µM.

For `O=C(O)[C@@H]1CCCN1c1cc(-c2ccc(Sc3ccc4c(c3)OCCO4)c(C(F)(F)F)c2)ccn1`, the half-inhibitory concentration (IC50) came out at 0.147 µM.

Consider `COc1ccccc1Sc1ccc(-c2ccnc(N3CCCC(C(=O)O)C3)c2)cc1C(F)(F)F` (centres undefined), for which the IC50 was found to be 0.122 µM.

In turn, `CC(C)c1ccccc1Sc1ccc(-c2ccnc(N3CCC[C@H]3CO)c2)cc1C(F)(F)F` (stereo in doubt) yielded an IC50 of 0.48 µM.

For the compound `CC(C)c1ccccc1Sc1ccc(-c2coc(N3CCCCC3)n2)cc1C(F)(F)F`, the concentration for half-maximal inhibition (IC50) came out at 15 µM.

As for `CC(=O)N[C@@H]1CCN(c2cc(-c3ccc(Sc4ccc5c(c4)OCCO5)c(C(F)(F)F)c3)ccn2)C1`, the IC50 turned out to be 0.112 µM.

Take `CCN(CC)C(=O)C1CCCN(c2cc(-c3ccc(Sc4ccccc4C(C)C)c(C(F)(F)F)c3)ncn2)C1` (centres undefined): the IC50 amounted to 0.62 µM.

On to `COc1ccccc1Sc1ccc(-c2ccnc(N3CCN(C(C)=O)CC3)c2)cc1C(F)(F)F`, for which the IC50 was 0.121 µM.

Compound `CC(C)c1ccccc1Sc1ccc(-c2ccnc(N3CCC(O)CC3)c2)cc1C(F)(F)F` yielded a half-maximal inhibitory concentration (IC50) of 0.076 µM.

Compound `CC(C)c1ccccc1Sc1ccc(-c2ccnc(N3CCCC(C(=O)O)C3)c2)cc1C(F)(F)F` (stereo in doubt; 16k) had an IC50 of 0.043 µM.

In turn, `CC(C)c1ccccc1Sc1ccc(-c2coc(N3CCOCC3)n2)cc1C(F)(F)F` came in with an IC50 of 3.6 µM.

Turning to `O=C(O)C1CCN(c2cc(-c3ccc(Sc4ccc5c(c4)OCCO5)c(C(F)(F)F)c3)ccn2)CC1`, the IC50 was 0.071 µM and 0.05 µM.

On to `NC(=O)C1CCN(c2cc(-c3ccc(Sc4ccc5c(c4)OCCO5)c(C(F)(F)F)c3)ccn2)CC1`, for which the half-inhibitory concentration (IC50) was 0.14 µM.

The compound `CC(C)c1ccccc1Sc1ccc(-c2ccnc(N3CCCC3)c2)cc1C(F)(F)F` showed an IC50 of 0.25 µM.

`CC(C)c1ccccc1Sc1ccc(-c2csc(NCCN3CCOCC3)n2)cc1C(F)(F)F` returned an IC50 of 12 µM.

`CC(C)c1ccccc1Sc1ccc(-c2ccnc(N3CCC[C@H]3CO)c2)cc1C(F)(F)F` (stereo in doubt; 16x): the concentration for half-maximal inhibition (IC50) was 0.264 µM.

On to `CC(=O)N1CCN(c2cc(-c3ccc(Sc4ccccc4C(C)C)c(C(F)(F)F)c3)ncn2)CC1`, for which the IC50 was 0.06 µM and 0.2 µM.

In turn, `CCN(C(C)=O)C1CCN(c2cc(-c3ccc(Sc4ccccc4C(C)C)c(C(F)(F)F)c3)ncn2)C1` (centres undefined) displayed an IC50 of 0.3 µM.

In the case of `CC(=O)N1CCN(c2cc(-c3ccc(Sc4ccc5c(c4)OCCO5)c(C(F)(F)F)c3)ccn2)CC1`, the concentration for half-maximal inhibition (IC50) was 0.131 µM and 0.06 µM.

In turn, `CC(C)c1ccccc1Sc1ccc(-c2ccnc(N3CC[C@@H](O)[C@H](C(=O)O)C3)c2)cc1C(F)(F)F` gave an IC50 of 0.043 µM.

In turn, `CC(C)c1ccccc1Sc1ccc(-c2cc(N3CCCC(C(N)=O)C3)ncn2)cc1C(F)(F)F` (centres undefined) returned a half-inhibitory concentration (IC50) of 0.34 µM.

Consider `COCCCNc1nc(-c2ccc(Sc3ccccc3C(C)C)c(C(F)(F)F)c2)cs1`, for which the 50% inhibitory concentration (IC50) was 10.5 µM.

Consider `CC(C)c1ccccc1Sc1ccc(-c2cc(NCCCn3ccnc3)ncn2)cc1C(F)(F)F`, for which the concentration for half-maximal inhibition (IC50) came to 0.76 µM.

In the case of `CC(C)c1ccccc1Sc1ccc(-c2ccnc(N3CCC(C(N)=O)CC3)c2)cc1C(F)(F)F`, the IC50 worked out at 0.073 µM.

`O[C@@H]1CCN(c2cc(-c3ccc(Sc4ccc5c(c4)OCCO5)c(C(F)(F)F)c3)ccn2)C1`: the IC50 worked out at 0.126 µM.

Compound `CC(C)c1ccccc1Sc1ccc(-c2ccnc(N3CCN(C=O)CC3)c2)cc1C(F)(F)F` came in with an IC50 of 0.165 µM.

The compound `CC(=O)N1CCN(C(=O)/C=C/c2ccc(Sc3ccccc3C(C)C)c(C(F)(F)F)c2)CC1` gave a 50% inhibitory concentration (IC50) of 0.06 µM.

On to `CC(C)c1ccccc1Sc1ccc(-c2ccnc(N3C[C@H](O)C[C@H]3C(=O)O)c2)cc1C(F)(F)F`, for which the IC50 was 0.09 µM.

`OCCC1CCN(c2cc(-c3ccc(Sc4ccc5c(c4)OCCO5)c(C(F)(F)F)c3)ccn2)CC1` had a 50% inhibitory concentration (IC50) of 0.132 µM.

Turning to `OC[C@H]1CCCN1c1cc(-c2ccc(Sc3ccc4c(c3)OCCO4)c(C(F)(F)F)c2)ccn1`, the IC50 is 0.51 µM.

`COc1ccccc1Sc1ccc(-c2ccnc(N3CCC(C(N)=O)CC3)c2)cc1C(F)(F)F` returned an IC50 of 0.14 µM.

`CC(=O)N(C)[C@@H]1CCN(c2cc(-c3ccc(Sc4ccc5c(c4)OCCO5)c(C(F)(F)F)c3)ccn2)C1`: the 50% inhibitory concentration (IC50) is 0.168 µM.

For `O=C(O)C1CCCN(c2cc(-c3ccc(Sc4ccc5c(c4)OCCO5)c(C(F)(F)F)c3)ccn2)C1` (stereo in doubt), the half-maximal inhibitory concentration (IC50) came out at 0.03 µM.

On to `COc1ccccc1Sc1ccc(-c2ccnc(N3CCC(O)CC3)c2)cc1C(F)(F)F`, for which the concentration for half-maximal inhibition (IC50) came to 0.128 µM.

Consider `CC1CN(c2cc(-c3ccc(Sc4ccccc4C(C)C)c(C(F)(F)F)c3)ncn2)CC(C)O1` (centres undefined), for which the IC50 was determined as 0.49 µM.

Take `CC(C)c1ccccc1Sc1ccc(-c2ccnc(N3CCC(C(=O)O)CC3)c2)cc1C(F)(F)F`: the IC50 was 0.042 µM and 0.05 µM.

`CC(C)c1ccccc1Sc1ccc(-c2cc(N3CCC(C(N)=O)CC3)ncn2)cc1C(F)(F)F` returned an IC50 of 0.23 µM.

For the compound `COc1ccccc1Sc1ccc(-c2ccnc(N3C[C@H](O)C[C@H]3C(=O)O)c2)cc1C(F)(F)F`, the concentration for half-maximal inhibition (IC50) was determined as 0.214 µM.

With `CC(C)c1ccccc1Sc1ccc(-c2cc(N3CCC(O)CC3)ncn2)cc1C(F)(F)F`, the 50% inhibitory concentration (IC50) worked out at 0.228 µM.

`CC(C)c1ccccc1Sc1ccc(-c2cc(N3CCC(CCO)CC3)ncn2)cc1C(F)(F)F` showed an IC50 of 0.23 µM.

Turning to `CCN(C)c1cc(-c2ccc(Sc3ccccc3C(C)C)c(C(F)(F)F)c2)ncn1`, the half-maximal inhibitory concentration (IC50) stood at 0.68 µM.

Compound `OC1CCN(c2cc(-c3ccc(Sc4ccc5c(c4)OCCO5)c(C(F)(F)F)c3)ccn2)CC1` had a half-inhibitory concentration (IC50) of 0.3 µM.

Turning to `O=C(O)C1CCCN(c2cc(-c3ccc(Sc4ccc5c(c4)OCCO5)c(C(F)(F)F)c3)ccn2)C1` (stereo in doubt; 18L), the 50% inhibitory concentration (IC50) was 0.076 µM.

On to `CC(C)c1ccccc1Sc1ccc(-c2ccnc(N3CCCCC3)c2)cc1C(F)(F)F`, for which the 50% inhibitory concentration (IC50) stood at 1 µM.

As to `CC(C)c1ccccc1Sc1ccc(-c2ccnc(N3CCC(CCO)CC3)c2)cc1C(F)(F)F`, the concentration for half-maximal inhibition (IC50) was found to be 0.16 µM.

`CCOC(=O)CN1CCN(c2cc(-c3ccc(Sc4ccccc4C(C)C)c(C(F)(F)F)c3)ncn2)CC1`: the IC50 was determined as 0.42 µM.

In turn, `CC(C)c1ccccc1Sc1ccc(-c2cc(N3CC[C@@H](O)C3)ncn2)cc1C(F)(F)F` showed a half-inhibitory concentration (IC50) of 0.158 µM.

Consider `CC(C)c1ccccc1Sc1ccc(-c2cc(N3CCOCC3)ncn2)cc1C(F)(F)F`, for which the IC50 was 0.08 µM and 0.32 µM.

As for `CC(C)c1ccccc1Sc1ccc(-c2ccnc(N3CCC(CO)CC3)c2)cc1C(F)(F)F`, the IC50 came out at 0.16 µM.

`CCCN1CCN(c2cc(-c3ccc(Sc4ccc5c(c4)OCCO5)c(C(F)(F)F)c3)ccn2)CC1`: the 50% inhibitory concentration (IC50) is 0.747 µM.

The compound `OCC1CCN(c2cc(-c3ccc(Sc4ccc5c(c4)OCCO5)c(C(F)(F)F)c3)ccn2)CC1` gave an IC50 of 0.39 µM.

Regarding `O=C(O)[C@@H]1C[C@@H](O)CN1c1cc(-c2ccc(Sc3ccc4c(c3)OCCO4)c(C(F)(F)F)c2)ccn1`, the IC50 came to 0.192 µM.

The compound `CC(=O)NC1CCN(c2cc(-c3ccc(Sc4ccccc4C(C)C)c(C(F)(F)F)c3)ncn2)C1` (centres undefined) displayed a half-inhibitory concentration (IC50) of 0.22 µM.

The compound `CC(C)c1ccccc1Sc1ccc(-c2ccnc(N3CCC[C@H]3C(=O)O)c2)cc1C(F)(F)F` yielded a concentration for half-maximal inhibition (IC50) of 0.026 µM.

In turn, `O=CN1CCN(c2cc(-c3ccc(Sc4ccc5c(c4)OCCO5)c(C(F)(F)F)c3)ccn2)CC1` gave an IC50 of 0.351 µM.

The compound `COc1ccccc1Sc1ccc(-c2ccnc(N3CCC(C(=O)O)CC3)c2)cc1C(F)(F)F` came in with a concentration for half-maximal inhibition (IC50) of 0.113 µM.

Compound `CC(C)c1ccccc1Sc1ccc(-c2cc(N3CCCC3CO)ncn2)cc1C(F)(F)F` (stereo in doubt) yielded an IC50 of 0.48 µM.

Turning to `CC(C)c1ccccc1Sc1ccc(-c2cc(N3CCC(NC(=O)OC(C)(C)C)C3)ncn2)cc1C(F)(F)F` (centres undefined), the IC50 was found to be 0.55 µM.

For the compound `COc1ccccc1Sc1ccc(-c2ccnc(N3CCC[C@H]3C(=O)O)c2)cc1C(F)(F)F`, the IC50 is 0.08 µM.

As for `COc1ccccc1Sc1ccc(-c2ccnc(N3CCN(C=O)CC3)c2)cc1C(F)(F)F`, the 50% inhibitory concentration (IC50) amounted to 0.186 µM.

Compound `CC(=O)N(C)[C@@H]1CCN(c2cc(-c3ccc(Sc4ccccc4C(C)C)c(C(F)(F)F)c3)ccn2)C1` showed a 50% inhibitory concentration (IC50) of 0.112 µM.

For `CC(C)c1ccccc1Sc1ccc(-c2cc(N3CCCC(CO)C3)ncn2)cc1C(F)(F)F` (centres undefined), the half-maximal inhibitory concentration (IC50) was found to be 0.23 µM.

Take `CC(C)c1ccccc1Sc1ccc(-c2ccnc(N3CCC(O)C3)c2)cc1C(F)(F)F` (centres undefined): the IC50 turned out to be 0.093 µM.

Regarding `CC(C)c1ccccc1Sc1ccc(-c2cc(N(C)C(C)C)ncn2)cc1C(F)(F)F`, the IC50 was 0.74 µM.

The values are drawn from ChEMBL document CHEMBL1140269, “Amino-substituted heterocycles as isosteres of trans-cinnamides: design and synthesis of heterocyclic biaryl sulfides as potent antagonists of LFA-1/ICAM-1 binding” (Bioorg Med Chem Lett, 2005).
